Values of other authors in article PMC3026871 (Cancer chemotherapy and pharmacology, 2010).

Biological target: Aurora A kinase in skin basal epithelial cells (Homo sapiens, UniProt O14965)
Conditions: subsequent studies, similar times, identical assays; cited from earlier work

Chain of Aurora A kinase in skin basal epithelial cells (O14965 whole entry): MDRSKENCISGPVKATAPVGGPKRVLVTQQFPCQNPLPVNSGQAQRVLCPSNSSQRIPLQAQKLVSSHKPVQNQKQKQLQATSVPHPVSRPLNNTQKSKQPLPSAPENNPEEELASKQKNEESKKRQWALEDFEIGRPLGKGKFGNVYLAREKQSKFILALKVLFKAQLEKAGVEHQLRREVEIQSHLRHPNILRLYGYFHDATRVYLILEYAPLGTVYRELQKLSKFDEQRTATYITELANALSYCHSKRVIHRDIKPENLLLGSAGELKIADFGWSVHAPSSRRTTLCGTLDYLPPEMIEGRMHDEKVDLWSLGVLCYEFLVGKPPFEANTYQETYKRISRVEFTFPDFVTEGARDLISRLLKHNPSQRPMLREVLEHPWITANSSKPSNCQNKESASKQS

COc1cc(Nc2ncc3c(n2)-c2ccc(Cl)cc2C(c2c(F)cccc2OC)=NC3)ccc1C(=O)O [MLN8237]
pharmacodynamic activity in skin biopsies: dose-dependent pharmacodynamic activity in skin biopsies
